The results in this text go back to US9062077B2, “Benzopyranobenzothiazinones and their use as fungicides, antibiotics and antitumor agents” (Leibniz-Institut fuer Naturstoff-Forschung und …, priority 2011, dated 2015).

What all share (assay type): cell-based
One data set has as its system HUVEC. Kind of data set: antiproliferative assay, HUVEC. The note with it: Homo sapiens, read-out: GI50, inhibition of proliferation of HUVEC. The procedure:
(§1) HeLa cells were used for the cytotoxic assay, HUVEC and K-562 cells were taken for the antiproliferative assay. The assays were conducted with phaeofungin C as described previously (Krauth et al., Bioorg. Med. Chem. 2010, 18, 1816-1821; Abdou et al., Phytochemistry 2010, 71, 110-116). Dose-response curves and IC50 values were then plotted and estimated, respectively.

Data set [1] concerns K-562 human leukemia cell lines. Kind of data set: antiproliferative assay, K-562. The note with it: K562, read-out: GI50, inhibition of proliferation of K-562 human leukemia cell lines. On the procedure:
as §1

The nature of data set [2]: cytotoxic assay, HeLa cells. The note with it: human, read-out: IC50, cytotoxic effects against HeLa cells. On the procedure: as §1

The structures appear in SMILES notation. pIC50: −log10 of the molar value.

On to `Cc1cc(O)c(O)c(Oc2cc(C)c3c4c(c(=O)oc3c2O)Nc2c(O)cc(C)cc2S4)c1` [Phaeofungin C], for which the results for the GI50 (in the data set with HUVEC; in data set [1]) were 7.5 µM and 2.4 µM, respectively. Also, the pIC50 in data set [2] was 5.00.
